In ChEMBL document CHEMBL2057208, “Benzoylbenzimidazole-based selective inhibitors targeting Cryptosporidium parvum and Toxoplasma gondii calcium-dependent protein kinase-1” (Bioorg Med Chem Lett, 2012):
The source made the active and inactive calls. The calls are words filed in the database; no cut-off is given here.

Columns and labels:
Cryptosporidium parvum = assay: Antiparasitic activity against Cryptosporidium parvum up to 1 uM; type: functional, organism-based
Toxoplasma gondii = assay: Antiparasitic activity against Toxoplasma gondii up to 1 uM; type: functional, organism-based
[1] = target: Tyrosine-protein kinase ABL1 (Homo sapiens, UniProt P00519); assay: Inhibition of human ABL
Tyrosine-protein kinase ABL1, sequence (P00519 whole entry): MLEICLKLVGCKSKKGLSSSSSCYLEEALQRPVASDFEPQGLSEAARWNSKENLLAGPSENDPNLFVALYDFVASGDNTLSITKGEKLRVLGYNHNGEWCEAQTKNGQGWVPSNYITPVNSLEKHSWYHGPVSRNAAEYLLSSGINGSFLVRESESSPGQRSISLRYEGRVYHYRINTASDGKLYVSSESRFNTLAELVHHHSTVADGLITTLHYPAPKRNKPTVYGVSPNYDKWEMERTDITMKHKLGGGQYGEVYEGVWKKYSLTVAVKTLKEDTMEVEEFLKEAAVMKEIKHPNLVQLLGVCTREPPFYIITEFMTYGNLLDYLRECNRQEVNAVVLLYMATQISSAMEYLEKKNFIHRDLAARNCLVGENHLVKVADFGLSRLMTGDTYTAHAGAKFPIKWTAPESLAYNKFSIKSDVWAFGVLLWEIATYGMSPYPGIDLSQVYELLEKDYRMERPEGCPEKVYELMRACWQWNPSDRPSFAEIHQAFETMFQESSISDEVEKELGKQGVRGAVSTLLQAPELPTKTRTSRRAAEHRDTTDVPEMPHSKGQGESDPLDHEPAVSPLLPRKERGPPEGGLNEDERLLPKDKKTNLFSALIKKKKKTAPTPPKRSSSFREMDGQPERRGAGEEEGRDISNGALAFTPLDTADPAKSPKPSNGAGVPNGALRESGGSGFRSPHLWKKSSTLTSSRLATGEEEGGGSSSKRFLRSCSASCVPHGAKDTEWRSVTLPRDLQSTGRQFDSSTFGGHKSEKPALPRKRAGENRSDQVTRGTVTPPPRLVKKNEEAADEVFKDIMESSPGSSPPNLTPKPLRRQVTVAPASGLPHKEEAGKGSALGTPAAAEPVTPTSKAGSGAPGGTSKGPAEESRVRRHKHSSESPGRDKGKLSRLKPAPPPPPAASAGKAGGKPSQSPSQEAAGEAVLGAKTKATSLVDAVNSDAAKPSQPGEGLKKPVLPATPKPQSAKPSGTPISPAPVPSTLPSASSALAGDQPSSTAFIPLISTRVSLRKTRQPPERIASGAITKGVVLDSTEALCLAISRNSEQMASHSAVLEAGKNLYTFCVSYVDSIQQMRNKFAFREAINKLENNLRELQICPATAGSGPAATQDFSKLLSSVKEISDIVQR

[2] = target: Proto-oncogene tyrosine-protein kinase Src (Homo sapiens, UniProt P12931); assay: Inhibition of human SRC
Proto-oncogene tyrosine-protein kinase Src, sequence (P12931 2-536 limits assumed): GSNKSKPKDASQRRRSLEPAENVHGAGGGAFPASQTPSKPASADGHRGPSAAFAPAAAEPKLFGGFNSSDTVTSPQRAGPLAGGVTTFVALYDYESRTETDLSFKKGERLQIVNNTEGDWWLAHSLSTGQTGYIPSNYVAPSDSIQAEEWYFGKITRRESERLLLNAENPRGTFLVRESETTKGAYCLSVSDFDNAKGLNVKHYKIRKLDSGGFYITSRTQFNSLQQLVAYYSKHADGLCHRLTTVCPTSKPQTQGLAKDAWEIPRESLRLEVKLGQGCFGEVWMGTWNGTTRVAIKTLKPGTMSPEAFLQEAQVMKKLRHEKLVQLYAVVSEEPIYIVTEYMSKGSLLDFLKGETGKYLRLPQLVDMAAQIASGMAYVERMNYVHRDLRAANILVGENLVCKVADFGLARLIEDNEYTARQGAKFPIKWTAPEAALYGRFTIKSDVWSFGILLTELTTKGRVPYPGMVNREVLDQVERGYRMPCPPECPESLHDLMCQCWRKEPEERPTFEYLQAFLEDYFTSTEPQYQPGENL

[3] = Inhibition of Cryptosporidium parvum CDPK1
[4] = target: T1, Calmodulin-domain protein kinase 1 (Toxoplasma gondii, UniProt Q9BJF5); assay: Inhibition of Toxoplasma gondii CDPK1
T1 sequence (Q9BJF5 whole entry): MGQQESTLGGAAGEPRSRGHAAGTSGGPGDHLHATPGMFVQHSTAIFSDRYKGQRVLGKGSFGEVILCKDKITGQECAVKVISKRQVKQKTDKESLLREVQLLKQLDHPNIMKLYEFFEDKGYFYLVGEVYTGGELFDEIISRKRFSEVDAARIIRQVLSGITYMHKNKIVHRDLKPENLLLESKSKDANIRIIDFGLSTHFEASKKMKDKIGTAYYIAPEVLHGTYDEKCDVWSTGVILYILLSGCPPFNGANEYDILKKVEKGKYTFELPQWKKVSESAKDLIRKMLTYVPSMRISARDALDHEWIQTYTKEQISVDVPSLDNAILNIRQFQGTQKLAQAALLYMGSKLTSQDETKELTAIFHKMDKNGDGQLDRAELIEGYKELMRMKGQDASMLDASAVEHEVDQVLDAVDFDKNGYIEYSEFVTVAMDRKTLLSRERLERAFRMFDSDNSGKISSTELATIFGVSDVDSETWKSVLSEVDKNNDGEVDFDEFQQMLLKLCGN

cells = conditions: Homo sapiens, CRL8155
Description: Cytotoxicity against human CRL8155 cells after 48 to 72 hrs by Alamar blue assay

HL-60 = assay: cells; conditions: Homo sapiens
Description: Cytotoxicity against human HL60 cells after 48 to 72 hrs by Alamar blue assay

Nc1nc2ccc(C(=O)c3ccccc3)cc2n1CCC1CCNCC1
Activity (Cryptosporidium parvum): inactive | Activity (Toxoplasma gondii): inactive | IC50 [1]: > 10 µM | IC50 [2]: > 10 µM | IC50 [3]: 0.017 µM | IC50 [4]: 0.02 µM | EC50 (cells): > 30 µM | EC50 (HL-60): > 30 µM
